Positions count from the first letter of the chain named.
Columns and labels:
[1] = target: T1, ACR-23 (Caenorhabditis elegans, UniProt G5EG88); assay: two-electrode voltage clamp in Xenopus oocytes; format: cell-based
T1 sequence (G5EG88 20-545): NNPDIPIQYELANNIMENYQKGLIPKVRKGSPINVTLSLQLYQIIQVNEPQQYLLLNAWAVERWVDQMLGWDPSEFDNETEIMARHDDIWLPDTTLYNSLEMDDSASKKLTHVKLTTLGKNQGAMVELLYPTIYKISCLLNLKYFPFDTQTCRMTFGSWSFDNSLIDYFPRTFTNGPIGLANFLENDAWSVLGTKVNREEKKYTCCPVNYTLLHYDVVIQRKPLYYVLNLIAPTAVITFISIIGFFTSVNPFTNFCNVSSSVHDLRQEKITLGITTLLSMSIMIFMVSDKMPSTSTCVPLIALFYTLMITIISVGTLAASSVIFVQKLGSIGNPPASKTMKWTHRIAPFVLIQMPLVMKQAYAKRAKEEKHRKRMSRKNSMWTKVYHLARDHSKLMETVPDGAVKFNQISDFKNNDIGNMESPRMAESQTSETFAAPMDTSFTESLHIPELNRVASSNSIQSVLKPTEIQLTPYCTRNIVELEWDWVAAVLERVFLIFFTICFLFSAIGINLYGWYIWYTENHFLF

[2] = target: T2, ACR-23(I301N) (Caenorhabditis elegans, UniProt G5EG88, I301N); assay: two-electrode voltage clamp in Xenopus oocytes expressing ACR-23; format: cell-based
T2 sequence (G5EG88 20-545 I301N): T1 sequence (G5EG88 20-545) with I282N

[3] = target: T1, ACR-23; assay: as above; format: cell-based
[4] = substrate: C[N+](C)(C)CC(=O)O; assay: cells, lysate or membranes; conditions: Na+ and Cl−

## C[C@](C#N)(COc1cc(C#N)ccc1C(F)(F)F)NC(=O)c1ccc(SC(F)(F)F)cc1 [monepantel]
[1]
  two-electrode voltage clamp in Xenopus oocytes; potentiation of 1 mM betaine cur: 300 pM

## C[N+](C)(C)CC(=O)O [betaine, N, N, N-trimethylglycine]
[2]
  EC50: 166 µM
[3]
  EC50: 1.4 mM

B1: SNF-3 (Caenorhabditis elegans) (protein)
chain: MGTSEHVPLPTDEAKAKELEQSQHSEEPDRGQWTGKFDFLMSMVAYAVGLGNVWRFPYLCYKNGGGSFLVVYMIFFCLAAVPIFLMEVTVGQYLQKGAMEMWLMCPLFRGVGIGNVVIAFMCIAYFCVIVAWAMFYMISSIAWVFPWETCNNYWNDATCVTGKENFTELARIKALVASAGGHTQTSVEQFWEKRVLHDTGDISEFGGIQWELFFIMAAAWLIVYFALWKGITQARKFVYFCALFPYVLIFILLIRGLTLEGAGTGIYFYLKPNATRLLDTAVWKDAGTQVFYSYGVGFGALIALGSHNKFNHNCFKDAITMCFINGCTSITAGFAVFSILGYMSHVAQKDISEIVKPGVGLAFLAYPEVASNLPMKQVFAVLFFLMITILGLDSQVCMMEGLFTALEDAFPILRKYKKQSLGIFCLFFFCIGIPMVTHSGSHWLTLFDAYGASGYALLFVVFFEVVGLAYGFGAHNIRKALHEMIGVTLPKGIEYVWKFCAPATSLVLFVFCVVYYHPVKYPDGKDFPFWANAFGWFLSSCSMVVIPGYAIYYLFFTNKHLTLKERVRKGLNLDGSFESPAKKNLVNNAEELKFIESSSQ
[4]
  Km: 320 ± 50 µM

— paper PMC3955162 (Nature neuroscience, 2013)
